For the experiment, the target named is T1, IRAK4 (Homo sapiens, UniProt Q9NWZ3).
T1 construct: endogenous in cells; host or cells: OCI-Ly10
T1 sequence (Q9NWZ3 1-460): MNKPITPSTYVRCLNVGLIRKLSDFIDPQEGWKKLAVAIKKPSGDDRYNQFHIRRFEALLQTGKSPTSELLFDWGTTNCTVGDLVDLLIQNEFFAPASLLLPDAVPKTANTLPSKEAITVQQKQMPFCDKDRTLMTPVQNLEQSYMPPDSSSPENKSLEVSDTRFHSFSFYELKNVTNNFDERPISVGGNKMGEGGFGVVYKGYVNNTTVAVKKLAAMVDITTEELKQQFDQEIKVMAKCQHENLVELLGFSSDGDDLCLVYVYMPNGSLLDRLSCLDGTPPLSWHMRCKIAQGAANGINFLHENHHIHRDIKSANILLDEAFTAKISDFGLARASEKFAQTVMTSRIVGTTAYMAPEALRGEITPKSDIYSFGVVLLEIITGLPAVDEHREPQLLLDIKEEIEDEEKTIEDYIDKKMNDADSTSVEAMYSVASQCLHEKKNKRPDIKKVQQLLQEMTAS
The experiment can be described thus: OCI-LY10 IRAK MSD assay DC50 (IRAK4 degradation). Conditions: OCI-Ly10 cells, incubated for 4 hr, concentration of compound required to degrade 50% of protein. In kind it is cell-based. The procedure:
A MSD assay is run to determine the concentration of compound required to degrade 50% of protein (DC50).
• Compounds were reconstituted to 10 mM in stock solutions. The stock solutions were diluted to 5 mM and 45 μL of each dilution was transferred to a 384 pp-plate. A 3 fold, 8-point serial dilution was performed by transferring 15 μL of compound into 30 μL DMSO using Janus. • 20 nL of each compound were added into each well of a 96-well plate (Corning3799). • OCI-Ly10 cells were seeded into the 96-well plate at 3.0*10e^5 cells/100 μL/well. • The cell plate was shaken at 720 rpm for 5 min and incubated for 4 hr. • 100 μL of cells were transferred into the 96-PCR plate and spun down at high speed for 5 mins. • The supernatant was discarded and 100 μL of RIPA lysis buffer with proteinase inhibitors was added per well. The plate was then sealed and shaken at 600 rpm and 4° C. for about 20 min. • The plate was then spun down at high speed (about 3200 g) for 30 min and then frozen in a −80° C. fridge. • A bare MSD plate (L15XA-3) was coated with 2 μg/mL of capture antibody (mouse Anti-IRAK4 antibody [2H9], ab119942) in PBS to 40 μL/well and incubated overnight at 4° C.
• The MSD coated plate was washed 3× (150 μL/well) with 1×TBST (CST #9997S). • The MSD plate was then blocked with 150 μL of blocking buffer [3% Blocker A (MSD, R93BA-4) in TBST]/well and shaken for 1 hr at RT and 600 rpm. • The MSD plate was washed 3× (150 μL/well) with 1×TBST. The sample RIPA lysates were then added to the MSD plate (50 μL/well) and shaken for 1 hr at RT and 600 rpm. • The MSD plate was washed 3× (150 μL/well) with 1×TBST and the primary detection antibody (Rabbit Anti-IRAK4 antibody [Y279], ab32511) was added to a final concentration of 1 μg/ml with 25 μL/well. The plate was then shaken for 1 hr at RT and 600 rpm. • The MSD plate was washed 3× (150 μL/well) with 1×TBST and the secondary detection antibody, SULFO-TAG anti-species antibody (Anti Rabbit Antibody (R32AB-5) MSD, R32AB-1) was added to a volume of 25 μL/well at a final concentration of 1 μg/ml. The plate was then shaken for 1 hr at RT and 600 rpm. • The MSD plate was then washed 3× (150 μL/well) with 1×TBST. • 1×MSD reading buffer was then added (150 μL/well) and the plate […].
(MSD, R92TC-2) • The MSD instrument was then read.
The remaining activity was calculated following the formula below:
• The DC50 was calculated by fitting the Curve using Xlfit (v5.3.1.3), equation 201: […]
The letter codes for IRAK4 DC50 indicate the concentration of compound required to degrade 50% of protein: A (<0.01 μM), B (0.01-0.1 μM), C (>0.1-0.2 μM), D (>0.2 μM).

Consider 32 molecules from patent US20250375526A1, “IRAK DEGRADERS AND USES THEREOF” (Kymera Therapeutics, Inc., priority 2020, published 2025).

Usually DC50 stands for the concentration at which degradation of the target reaches its halfway point.

With `COc1cc2nc([C@H]3CC[C@H](CN4CCC(c5cccn6c(N7CCC(=O)NC7=O)cnc56)CC4)CC3)sc2cc1NC(=O)c1cccc(C(F)(F)F)n1` [I-79], the DC50 is under 10 nM. The figure for `O=C1CCN(c2cnc3cc(C4CCN(C[C@H]5CC[C@H](n6cc7cc(NC(=O)c8cccc(C(F)(F)F)n8)ncc7n6)CC5)CC4)ccn23)C(=O)N1` [I-37] is over 200 nM. The figure for `COc1cc2nc([C@H]3CC[C@H](CN4CCN(c5ccn6c(N7CCC(=O)NC7=O)cnc6c5C)CC4)CC3)sc2cc1NC(=O)c1cccc(C(F)(F)F)n1` [I-50] is 10 to 100 nM; for `O=C1CCN(c2cnc3c(C#CCN4CCN(C[C@H]5CC[C@H](n6cc(NC(=O)c7cnn8ccc(N9C[C@H]%10C[C@@H]9CO%10)nc78)c(C(F)F)n6)CC5)CC4)cccn23)C(=O)N1` [I-60] it is under 10 nM; for `C[C@H]1CN(C[C@H]2C[C@H](n3cc(NC(=O)c4cnn5ccc(N6C[C@H]7C[C@@H]6CO7)nc45)c(C(F)F)n3)C2)CC[C@@H]1OCC#Cc1ccn2c(N3CCC(=O)NC3=O)cnc2c1` [I-59] it is under 10 nM. The figure for `O=C1CCN(c2cnc3cc(C4CCN(C[C@H]5C[C@H](n6cc7cc(NC(=O)c8cccc(C(F)(F)F)n8)ccc7n6)C5)CC4)ccn23)C(=O)N1` [I-85] is over 200 nM; for `N#Cc1cc2nn([C@H]3CC[C@H](CN4CCC(c5ccn6c(N7CCC(=O)NC7=O)cnc6c5)CC4)CC3)cc2cc1NC(=O)c1cccc(C(F)(F)F)n1` [I-66] it is under 10 nM; for `COc1cc2nn([C@H]3C[C@H](CN4CCC(c5cccc6c(N7CCC(=O)NC7=O)cncc56)CC4)C3)cc2cc1NC(=O)c1cccc(C(F)(F)F)n1` [I-40] it is 10 to 100 nM. Molecule `COc1cc2nc([C@H]3CC[C@H](CN4CCN(c5ccn6c(N7CCC(=O)NC7=O)cnc6c5OC)CC4)CC3)sc2cc1NC(=O)c1cccc(C(F)(F)F)n1` [I-48] came in with a DC50 of 10 to 100 nM. The molecule `CN(C[C@H]1CC[C@H](n2cc3cc(NC(=O)c4cccc(C(F)(F)F)n4)ccc3n2)CC1)C1CCN(c2ccc3c(N4CCC(=O)NC4=O)cncc3c2)CC1` [I-19] displayed a DC50 of 10 to 100 nM.

`N#Cc1cnc2c(C(=O)Nc3ccc4nn([C@H]5CC[C@H](CN6CCC(c7cccn8c(N9CCC(=O)NC9=O)cnc78)CC6)CC5)cc4c3)cnn2c1` [I-65, 6-Cyano-N-[2-[4-[[4-[3-(2,4-dioxohexahydropyrimidin-1-yl)imidazo[1,2-a]pyridin-8-yl]-1-piperidyl]methyl]cyclohexyl]indazol-5-yl]pyrazolo[1,5-a]pyrimidine-3-carboxamide] returned a DC50 of 10 to 100 nM. The figure for `O=C1CCN(c2cncc3c(C4CCN(C[C@H]5CC[C@H](n6cc7cc(NC(=O)c8cccc(C(F)(F)F)n8)ccc7n6)CC5)CC4)cccc23)C(=O)N1` [I-10] is 10 to 100 nM; for `COc1cc2nn([C@H]3CC[C@H](CN4C[C@@H]5C[C@H]4CN5c4ccn5c(N6CCC(=O)NC6=O)cnc5c4)CC3)cc2cc1NC(=O)c1cccc(C(F)(F)F)n1` [I-52] it is 10 to 100 nM. Consider `COc1cc2nn([C@H]3CC[C@H](CN4C5CC4CN(c4cccn6c(N7CCC(=O)NC7=O)cnc46)C5)CC3)cc2cc1NC(=O)c1cccc(C(F)(F)F)n1` [I-57], for which the DC50 fell in the range of 10 to 100 nM. In the case of `COc1cc2nn([C@H]3CC[C@H](CN(C)C4CCN(c5cccn6c(N7CCC(=O)NC7=O)cnc56)CC4)CC3)cc2cc1NC(=O)c1cc(F)cc(C(F)(F)F)c1` [I-43], the DC50 was in the range of 10 to 100 nM.

On to `COc1cc2nn([C@H]3CC[C@H](CN4C5CCC4CN(c4cccn6c(N7CCC(=O)NC7=O)cnc46)C5)CC3)cc2cc1NC(=O)c1cccc(C(F)(F)F)n1` [I-53], for which the DC50 is under 10 nM. `COc1cc2nn([C@H]3CC[C@H](CN4CCC(c5ccn6c(N7CCC(=O)NC7=O)cnc6c5)CC4)CC3)cc2cc1NC(=O)c1cccc(C(F)(F)F)n1` [I-36, N-[2-[4-[[4-[3-(2,4-dioxohexahydropyrimidin-1-yl)imidazo[1,2-a]pyridin-7-yl]-1-piperidyl]methyl]cyclohexyl]-6-methoxy-indazol-5-yl]-6-(trifluoromethyl)pyridine-2-carboxamide] gave a 50% degradation concentration (DC50) of under 10 nM. For `CN(C[C@H]1CC[C@H](n2cc3cc(NC(=O)c4cccc(C(F)(F)F)n4)ncc3n2)CC1)C1CCN(c2ccn3c(N4CCC(=O)NC4=O)cnc3c2)CC1` [I-33], the DC50 was under 10 nM.

In turn, `COc1cc2nn([C@H]3CC[C@H](CN4C[C@@H]5C[C@H]4CN5c4cccn5c(N6CCC(=O)NC6=O)cnc45)CC3)cc2cc1NC(=O)c1cccc(C(F)(F)F)n1` [I-54] returned a half-maximal degradation concentration (DC50) of 10 to 100 nM. In turn, `COc1cc2nn([C@H]3CC[C@H](CN4CCC(c5ccn6c(N7CCC(=O)NC7=O)cnc6c5)CC4)CC3)cc2cc1NC(=O)c1cc(F)cc(C(F)(F)F)c1` [I-81] had a DC50 of 10 to 100 nM.

Molecule `O=C1CCN(c2cnc3c(C4CCN(C[C@H]5CC[C@H](n6cc7cc(NC(=O)c8cccc(C(F)(F)F)n8)ncc7n6)CC5)CC4)cccn23)C(=O)N1` [I-29] had a DC50 of 10 to 100 nM.

With `O=C1CCN(c2cnc3c(C4CCN(C[C@H]5CC[C@H](n6cc7cc(NC(=O)c8cccc(C(F)(F)F)n8)ccc7n6)CC5)CC4)cccn23)C(=O)N1` [I-28], the DC50 was over 200 nM. On to `COc1cc2nn([C@H]3CC[C@H](CN(C)C4CCN(c5cccn6c(N7CCC(=O)NC7=O)cnc56)CC4)CC3)cc2cc1NC(=O)c1cncc(Cl)c1` [I-88], for which the DC50 is over 200 nM. With `COc1cc2nn([C@H]3CC[C@H](CN4CCC(c5cccn6c(N7CCC(=O)NC7=O)cnc56)CC4)CC3)cc2cc1NC(=O)c1cc(F)cc(C(F)(F)F)c1` [I-82], the half-maximal degradation concentration (DC50) was in the range of 10 to 100 nM.

On to `COc1cc2nn([C@H]3CC[C@H](CN4C[C@H]5C[C@@H]4CN5c4cccn5c(N6CCC(=O)NC6=O)cnc45)CC3)cc2cc1NC(=O)c1cccc(C(F)(F)F)n1` [I-55], for which the 50% degradation concentration (DC50) lay in the range of 10 to 100 nM. The figure for `COc1cc2nn([C@H]3CC[C@H](CN4CCN(c5cccn6c(N7CCC(=O)NC7=O)cnc56)CC4)CC3)cc2cc1NC(=O)c1cccc(C(F)(F)F)n1` [I-69] is under 10 nM; for `O=C1CCN(c2cnc3c(C4CCN(C[C@H]5C[C@H](n6cc7cc(NC(=O)c8cccc(C(F)(F)F)n8)ccc7n6)C5)CC4)cccn23)C(=O)N1` [I-39, N-[2-[3-[[4-[3-(2,4-dioxohexahydropyrimidin-1-yl)imidazo[1,2-a]pyridin-8-yl]-1-piperidyl]methyl]cyclobutyl]indazol-5-yl]-6-(trifluoromethyl)pyridine-2-carboxamide] it is over 200 nM. The value for `CC(C)Nc1cc(-c2ccc3cc(C#N)cnn23)ncc1C(=O)N[C@H]1CC[C@H](CN2CCC(c3cccn4c(N5CCC(=O)NC5=O)cnc34)CC2)CC1` [I-73] was 10 to 100 nM; that for `C[C@@H]1CN(C[C@H]2CC[C@H](n3cc(NC(=O)c4cnn5ccc(N6C[C@H]7C[C@@H]6CO7)nc45)c(C(F)F)n3)CC2)CC[C@H]1OCC#Cc1ccn2c(N3CCC(=O)NC3=O)cnc2c1` [I-64] was under 10 nM. In turn, `COc1cc2nn([C@H]3CC[C@H](CN4CCCN(c5cccn6c(N7CCC(=O)NC7=O)cnc56)CC4)CC3)cc2cc1NC(=O)c1cccc(C(F)(F)F)n1` [I-47] returned a DC50 of 10 to 100 nM. `C[C@@H]1CN(C[C@H]2CC[C@H](n3cc(NC(=O)c4cnn5ccc(N6C[C@H]7C[C@@H]6CO7)nc45)c(C(F)F)n3)CC2)CC[C@H]1OCC#Cc1cccn2c(N3CCC(=O)NC3=O)cnc12` [I-62] gave a half-maximal degradation concentration (DC50) of under 10 nM. The value for `COc1cc2nn([C@H]3CC[C@H](CN4C[C@H]5C[C@@H]4CN5c4ccn5c(N6CCC(=O)NC6=O)cnc5c4)CC3)cc2cc1NC(=O)c1cccc(C(F)(F)F)n1` [I-56] was 10 to 100 nM.
